Source: patent US20100022553A1, “Therapeutic Combination Comprising an Aurora Kinase Inhibitor and Imatinib” (NERVIANO MEDICAL SCIENCES S.R.L., priority 2008, published 2010)

Legend:
[1] = test system: Human myeloid leukemia K-562 cell line; settings: K562 s.c. in SCID mice, Imatinib 100 mg/kg per os, days 7-15; for Time to reach 1 g: Compound 1 15 mg/kg intraperitoneally twice a day; for T-C: delay of treated vs control tumors to reach 1 g, Compound 1 15 mg/kg i.p.
Procedure: SCID female mice, from Harlan (Italy), were maintained in cages with paper filter cover, food and bedding sterilized and water acidified.
For in vivo experiments 10^7 K562 cells were implanted subcutaneously in SCID mice.
Tumor growth and body weight were measured every 3 days. Tumor growth was assessed by caliper. […] This delay (T-C value) was defined as the difference of time (in days) required for the treatment group (T) and the control group(C) tumors to reach a predetermined size (1 g).
Toxicity was evaluated on the basis of body weight reduction.

[2] = target: T315I mutation of Abl (Bcr-Abl) (Homo sapiens, UniProt P00519, T315I); settings: cited from earlier work

Compound	Time to reach 1 g [1] [days]	T-C [1] [days]	activity against the T315I mutation [2]
Cc1ccc(NC(=O)c2ccc(CN3CCN(C)CC3)cc2)cc1Nc1nccc(-c2cccnc2)n1 [Imatinib]	25.1	9.3	–
Cc1ccc(NC(=O)c2ccc(CN3CC[C@H](N(C)C)C3)c(C(F)(F)F)c2)cc1Nc1nccc(-c2cncnc2)n1 [Inno-406]	–	–	inactive
CO[C@@H](C(=O)N1Cc2[nH]nc(NC(=O)c3ccc(N4CCN(C)CC4)cc3)c2C1)c1ccccc1 [Compound 1, N-[5-(2-Methoxy-2-phenyl-acetyl)-1,4,5,6-tetrahydro-pyrrolo[3,4-c]pyrazol-3-yl]-4-(4-methyl-piperazin-1yl)-benzamide]	27.3	11.5	–
